In publication PMC9813109, “Phase I dose-escalation study of milademetan in patients with relapsed or refractory acute myeloid leukemia” (International Journal of Hematology, 2022):
Entries after “also recorded” stand apart in the source; their conditions may differ. Like-named read-outs stand apart in the source and are kept apart here.

Key:
[1] = Plasma pharmacokinetics (validated HPLC/MS, noncompartmental analysis); format: in vivo, human; conditions: for Cmax / AUC(0-t) / Tmax / half-life / AUC(0-inf): human, plasma, oral
Procedure: Milademetan concentrations were determined using a validated HPLC/MS method. The lower limit of quantification was 0.500 ng/mL. Noncompartmental analysis was used to calculate the PK parameters from milademetan plasma concentrations. In addition, the Phoenix WinNonlin 8.1 software (Certara, Princeton, NJ, USA) was used for PK analysis. In addition to descriptive statistics, the geometric mean and geometric coefficient of variation were used to describe the PK parameters. All analyses were conducted using SAS® software (version 9.4; SAS Institute Inc., Cary, NC, USA). The time courses of mean plasma milademetan concentrations on days 1 and 14 of cycle 1 (linear scale) in the QD 14/28-day schedule were used for pharmacokinetic analysis. The best response was measured as CR, CRh, CRi, or PR. For efficacy analysis, a waterfall plot of the best percent change from baseline blast count in bone marrow aspirate on the QD 14/28-day schedule was drawn to assess the blast count reduction. In addition, line plots of individual serum MIC-1 levels were drawn in the QD 14/28-day schedule for the pharmacodynamics analysis set.

[2] = tested on: R/R AML (blast count in bone marrow aspirate); assay: Efficacy assessment: best response and bone marrow blast count; format: in vivo, human; conditions: for Best response: Not applicable: SD < 3 months was deemed not applicable
Text: Bone marrow and peripheral blood results were used to assess the antitumor effect of milademetan. AML response criteria were defined as shown in Supplementary Table 1. A morphologic leukemia-free state (MLFS) was defined as bone marrow blasts < 5% in the absence of blasts with Auer rods and the absence of extramedullary leukemia. The presence/absence of hematological recovery or blood transfusion was not considered. Stable disease (SD) was defined as an absence of CR, CR with incomplete hematologic recovery (CRi) or partial hematologic recovery (CRh), partial remission (PR), or MLFS, provided that the criteria for the progressive disease were not met. SD had to last at least 3 months (assessed as SD more than thrice in a row) after initiating milademetan treatment. SD < 3 months was deemed not applicable. The best-measured response was defined as the best overall response (all time points after the start of study treatment until the end of treatment). The composite CR (CRc) duration was defined as the time between when the criteria for […] first met and when a relapse was first confirmed. In addition to descriptive statistics, the geometric mean and geometric coefficient of variation were used to describe the PK parameters. All analyses were conducted using SAS® software (version 9.4; SAS Institute Inc., Cary, NC, USA). The time courses of mean plasma milademetan concentrations on days 1 and 14 of cycle 1 (linear scale) in the QD 14/28-day schedule were used for pharmacokinetic analysis. The best response was measured as CR, CRh, CRi, or PR. For efficacy analysis, a waterfall plot of the best percent change from baseline blast count in bone marrow aspirate on the QD 14/28-day schedule was drawn to assess the blast count reduction. In addition, line plots of individual serum MIC-1 levels were drawn in the QD 14/28-day schedule for the pharmacodynamics analysis set.

[3] = tested on: MDM2–p53 interaction; set-up: method as in PMID 31310659, PMID 30724592; conditions: in vitro studies; cited from earlier work
[4] = tested on: tumor cells; set-up: method as in PMID 31310659, PMID 30724592; conditions: in vitro studies; cited from earlier work
[5] = tested on: hematologic malignancies like R/R AML and high-risk myelodysplastic syndrome; conditions: QD 14/28-day schedule, USA phase I, ref NCT02319369, data not published; cited from earlier work

What does the source list for `CC1(C)CCC2(CC1)N[C@@H](C(=O)N[C@@H]1CC[C@@H](C(N)=O)OC1)[C@H](c1ccnc(Cl)c1F)[C@]21C(=O)Nc2cc(Cl)ccc21` [milademetan]?
AUCinf ([1]; Day 1 of cycle 1, 90 mg/day, mean (SD), two patients excluded): 13,700 (4,100) ng h/mL; Mean accumulation ratios based on AUC24h ([1]; Day 14, dose range tested (90-160 mg)): 1.40–1.90; Ctrough ([1]; Day 14 of cycle 1, 90 mg/day, mean (SD)): 422 (147) ng/mL; Ctrough ([1]; Day 14 of cycle 1, 120 mg/day, mean (SD)): 635 (533) ng/mL; Ctrough ([1]; Day 14 of cycle 1, 160 mg/day, mean (SD)): 769 (221) ng/mL; Increase in Cmax and AUC with dose ([1]; dose range tested, single and multiple dosing): increased linearly with milademetan dose; also recorded: linear and dose-proportional; Cmax ([1]; 90 mg/day, Day 1 of cycle 1, 90 mg/day, mean (SD)): 653 ng/mL; AUC(0-t) ([1]; 90 mg/day, Day 1 of cycle 1, 90 mg/day, mean (SD), two patients excluded, read-out: AUC24h): 8640 ng·h/mL; AUC(0-t) ([1]; 90 mg/day, Day 1 of cycle 1, 90 mg/day, mean (SD), read-out: AUC8h): 3170 ng·h/mL; AUC(0-t) ([1]; 90 mg/day, Day 1 of cycle 1, 90 mg/day, mean (SD), read-out: AUClast): 8060 ng·h/mL; Tmax ([1]; 90 mg/day, Day 1 of cycle 1, 90 mg/day, median (minimum, maximum), read-out: Tmax): 4.45 h; Cmax ([1]; 90 mg/day, Day 14 of cycle 1, 90 mg/day, mean (SD)): 1090 ng/mL; AUC(0-t) ([1]; 90 mg/day, Day 14 of cycle 1, 90 mg/day, mean (SD), read-out: AUC8h): 6220 ng·h/mL; Tmax ([1]; 90 mg/day, Day 14 of cycle 1, 90 mg/day, median (minimum, maximum), read-out: Tmax): 3.02 h; Cmax ([1]; 120 mg/day, Day 1 of cycle 1, 120 mg/day, mean (SD)): 1010 ng/mL; AUC(0-t) ([1]; 120 mg/day, Day 1 of cycle 1, 120 mg/day, mean (SD), one patient excluded, read-out: AUC24h): 12100 ng·h/mL; AUC(0-t) ([1]; 120 mg/day, Day 1 of cycle 1, 120 mg/day, mean (SD), read-out: AUC8h): 4940 ng·h/mL; AUC(0-t) ([1]; 120 mg/day, Day 1 of cycle 1, 120 mg/day, mean (SD), read-out: AUClast): 11300 ng·h/mL; Tmax ([1]; 120 mg/day, Day 1 of cycle 1, 120 mg/day, median (minimum, maximum), read-out: Tmax): 3.13 h; Cmax ([1]; 120 mg/day, Day 14 of cycle 1, 120 mg/day, mean (SD)): 1680 ng/mL; AUC(0-t) ([1]; 120 mg/day, Day 14 of cycle 1, 120 mg/day, mean (SD), read-out: AUC8h): 10000 ng·h/mL; Tmax ([1]; 120 mg/day, Day 14 of cycle 1, 120 mg/day, median (minimum, maximum), read-out: Tmax): 2.98 h; Cmax ([1]; 160 mg/day, Day 1 of cycle 1, 160 mg/day, mean (SD)): 1380 ng/mL; AUC(0-t) ([1]; 160 mg/day, Day 1 of cycle 1, 160 mg/day, mean (SD), two patients excluded, read-out: AUC24h): 15000 ng·h/mL; AUC(0-t) ([1]; 160 mg/day, Day 1 of cycle 1, 160 mg/day, mean (SD), read-out: AUC8h): 6560 ng·h/mL; AUC(0-t) ([1]; 160 mg/day, Day 1 of cycle 1, 160 mg/day, mean (SD), read-out: AUClast): 14900 ng·h/mL; Tmax ([1]; 160 mg/day, Day 1 of cycle 1, 160 mg/day, median (minimum, maximum), read-out: Tmax): 2.54 h; Cmax ([1]; 160 mg/day, Day 14 of cycle 1, 160 mg/day, mean (SD)): 2710 ng/mL; AUC(0-t) ([1]; 160 mg/day, Day 14 of cycle 1, 160 mg/day, mean (SD), read-out: AUC8h): 15300 ng·h/mL; Tmax ([1]; 160 mg/day, Day 14 of cycle 1, 160 mg/day, median (minimum, maximum), read-out: Tmax): 3.03 h; half-life ([1]; Day 1 of cycle 1, 90 mg/day, mean (SD), two patients excluded, read-out: t1/2 (converted)): 954 min; AUC(0-inf) ([1]; Day 1 of cycle 1, 120 mg/day, mean (SD), one patient excluded): 18600 ng·h/mL; half-life ([1]; Day 1 of cycle 1, 120 mg/day, mean (SD), one patient excluded, read-out: t1/2 (converted)): 846 min; AUC(0-inf) ([1]; Day 1 of cycle 1, 160 mg/day, mean (SD), two patients excluded): 22700 ng·h/mL; half-life ([1]; Day 1 of cycle 1, 160 mg/day, mean (SD), two patients excluded, read-out: t1/2 (converted)): 876 min; half-life ([1]; across doses, read-out: Mean half-life (converted)): ~900 min; Tmax ([1]; across doses, read-out: Median Tmax): 3 to 4 h; Best response: Morphologic leukemia-free state ([2]; 90 mg/day (n = 4)): 0 (0.0) n, %; Best response: Progressive disease ([2]; 90 mg/day (n = 4)): 1 (25.0) n, %; Best response: Stable disease ([2]; 90 mg/day (n = 4)): 1 (25.0) n, %; Best response: Not applicable ([2]; 90 mg/day (n = 4)): 2 (50.0) n, %; Best response: Morphologic leukemia-free state ([2]; 120 mg/day (n = 5)): 1 (20.0) n, %; Best response: Progressive disease ([2]; 120 mg/day (n = 5)): 1 (20.0) n, %; Best response: Stable disease ([2]; 120 mg/day (n = 5)): 0 (0.0) n, %; Best response: Not applicable ([2]; 120 mg/day (n = 5)): 3 (60.0) n, %; Best response: Morphologic leukemia-free state ([2]; 160 mg/day (n = 3)): 1 (33.3) n, %; Best response: Progressive disease ([2]; 160 mg/day (n = 3)): 0 (0.0) n, %; Best response: Stable disease ([2]; 160 mg/day (n = 3)): 0 (0.0) n, %; Best response: Not applicable ([2]; 160 mg/day (n = 3)): 2 (66.7) n, %; Patients with a ≥ 50% reduction in baseline blast count in the bone marrow aspirate ([2]; 12 patients): 33.3%; CR, CRh, CRi, or PR ([2]; 12 patients, 90, 120 or 160 mg): None of the patients; MLFS, patients ([2]; 12 patients, TP53 wild at baseline): 16.7%; Best response: Morphologic leukemia-free state ([2]; Total (n = 12)): 2 (16.7) n, %; Best response: Progressive disease ([2]; Total (n = 12)): 2 (16.7) n, %; Best response: Stable disease ([2]; Total (n = 12)): 1 (8.3) n, %; Best response: Not applicable ([2]; Total (n = 12)): 7 (58.3) n, %; Effect on MDM2–p53 interaction [3]: inhibits the MDM2–p53 interaction; Antitumor effect in vitro [4]: p53 status-dependent antitumor effect; Maximum tolerated dose (MTD) [5]: 160 mg
